# Columns and labels:
# [1] = tested on: cuboids from a human colorectal tumor biopsy; test: CytC in supernatant of drug-treated human tumor cuboids, aptasensor platform; type: cell-based; details: three days treatment; Staurosporine 1 μM, FOLFOX 1 μg/mL 5FU+1 μg/mL Oxaliplatin, FOLFIRI 5FU+Irinotecan
# Description: (§1) Measurement of CytC from the supernatant of human microdissected cancer tissue cultured with drugs using the aptasensor platform. A study was conducted to assess the aptasensor platform's ability to quantify CytC secretion from human cuboids after drug treatments for three days in culture with Staurosporine, FOLFOX (a combination of fluorouracil and oxaliplatin), and FOLFIRI (a combination of fluorouracil and irinotecan), in comparison to the dimethyl sulfoxide (DMSO) vehicle control. Uniform-sized cuboids were prepared from a human colorectal tumor biopsy. Each drug condition was prepared in duplicate. Subsequently, the supernatants were collected and the level of CytC released from the cuboids after cell death was measured using the aptasensor platform. To validate the platform's measurements, the results were compared with those obtained from ELISA (FIG. 4D). […] In some cases, the platform even indicated higher production rates. Duplicates for both the sensor and for the ELISA were consistent. […] While the trend in measurements for supernatant 1 and supernatant 2 was similar between sensor reading and ELISA, the higher concentration observed in sensor readings may stem from variations in the sensor-specific calibration curves.
# (§2) Human colorectal cancer tumor supernatant. Colorectal tumor biopsy was obtained from a person with metastatic cancer who had been off treatment for a year. […]
# [2] = tested on: cuboids from a human colorectal tumor biopsy; test: CytC in supernatant of drug-treated human tumor cuboids, ELISA; type: cell-based; details: three days treatment; duplicated supernatant samples; same drug concentrations
# Description: as §1, §2
smiles,measurement,setting,value
CN[C@@H]1C[C@H]2O[C@@](C)([C@@H]1OC)n1c3ccccc3c3c4c(c5c6ccccc6n2c5c31)C(=O)NC4 [Staurosporine],CytC production relative to DMSO control vehicle (aptasensor platform),[1],~3 fold
same,CytC production relative to DMSO control vehicle (ELISA),[2],4.23 fold

# Reference: US20240369511A1, “INTEGRATED ELECTROCHEMICAL APTASENSORS FOR MEASURING CELL DEATH AND CYTOKINE ACTIVITY FROM INTACT TISSUE SAMPLES” (University of Washington, priority 2023, published 2024)
